We go through 23 molecules from patent US20260042735A1, “BENZYLTRYPTAMINE COMPOUNDS” (priority 2021, published 2026).

The structures appear in SMILES notation. Where two headings read alike, the source gives them in different places. Bounds are passed on as bounds.

One test concerns the target human 5-HT2A receptor (Homo sapiens (Human), UniProt P28223). The test is described as follows: 5HT2A competitive binding assay (Eurofins Cerep). From the text:
The compound is approximately equipotent to psilocybin based on data from the http:/PDSP.unc.edu/databases/pdsp.php.

The target of test [1] is T1, 5HT2B receptor (Homo sapiens, UniProt P41595). The test is described as follows: 5HT2B competitive binding assay.
T1 sequence (P41595 whole entry): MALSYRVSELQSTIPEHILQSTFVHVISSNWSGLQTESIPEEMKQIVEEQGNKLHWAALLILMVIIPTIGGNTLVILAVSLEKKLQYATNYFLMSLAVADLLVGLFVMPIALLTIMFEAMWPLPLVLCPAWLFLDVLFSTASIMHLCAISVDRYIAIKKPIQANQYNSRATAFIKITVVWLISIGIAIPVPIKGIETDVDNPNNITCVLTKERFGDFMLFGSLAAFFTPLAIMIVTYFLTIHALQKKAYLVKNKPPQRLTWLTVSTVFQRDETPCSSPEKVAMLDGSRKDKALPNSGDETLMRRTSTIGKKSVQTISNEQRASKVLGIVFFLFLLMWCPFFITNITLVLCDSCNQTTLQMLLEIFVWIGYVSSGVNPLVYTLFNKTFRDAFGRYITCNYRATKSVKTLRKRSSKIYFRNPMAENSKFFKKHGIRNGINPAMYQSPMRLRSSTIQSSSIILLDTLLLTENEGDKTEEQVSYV
Test [2] addresses T1, 5HT2B receptor. The test is described as follows: 5HT2B functional antagonist assay. It is filed as cell-based. As to the method: Quantification of myo-Inositol-1-phosphate was performed using HTRF.
The target of test [3] is T1, 5HT2B receptor. The test is described as follows: 5HT2B (IP1) functional agonist assay. The test is classed as cell-based.
The target in test [4] is T2, 5HT2C receptor (Homo sapiens, UniProt P28335). The test is described as follows: biochemical.
T2 sequence (P28335 33-458 limits assumed): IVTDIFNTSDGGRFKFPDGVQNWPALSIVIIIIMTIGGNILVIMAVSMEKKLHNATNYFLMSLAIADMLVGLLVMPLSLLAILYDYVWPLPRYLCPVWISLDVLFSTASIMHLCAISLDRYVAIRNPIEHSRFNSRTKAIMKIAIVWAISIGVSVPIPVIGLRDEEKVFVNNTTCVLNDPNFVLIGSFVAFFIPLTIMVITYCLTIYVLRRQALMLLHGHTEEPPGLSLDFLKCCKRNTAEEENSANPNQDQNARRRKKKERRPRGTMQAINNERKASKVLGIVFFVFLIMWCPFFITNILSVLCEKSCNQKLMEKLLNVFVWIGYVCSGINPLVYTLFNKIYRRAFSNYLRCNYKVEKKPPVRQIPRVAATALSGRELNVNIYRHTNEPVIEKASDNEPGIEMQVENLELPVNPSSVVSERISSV
The target of another test is human recombinant 5-HT1A (Homo sapiens (Human), UniProt P08908). The test is described as follows: 5HT1A competitive binding assay (Eurofins Cerep). The following applies: [3H]8-OHDPAT 0.5 nM, HEK-293, Cheng Prusoff; read-out: 5HT1A binding constant Ki.
Test [5] concerns the target T2, 5HT2C receptor. The conditions noted are these: phosphoinositol hydrolysis; read-out: Agonist potency at human 5-HT2C receptor; cited from earlier work.
The mark [6] stands for this setting: Table 1, all units nM, read-out: 2A Binding.
The mark [7] stands for this setting: Table 1, all units nM, read-out: 2B Binding.
Setting [8] is: Table 1, all units nM, read-out: 2B IC50 Functional Antagonist.
Where [9] appears, read: 2A Binding, Table 1, all units nM.
Setting [10] is: Table 1, all units nM, read-out: 2B EC50 Functional Agonist.

For the molecule `CN(CCc1c[nH]c2ccccc12)Cc1cccc2c1OCO2` [Example 26], the values for the Ki at human 5-HT2A receptor (setting [6]) and on 5HT2B receptor [1] (setting [7]) were 73 nM and 60 nM, respectively. The IC50 on 5HT2B receptor [2] (setting [8]) was determined as 1090 nM.

Take `CN(CCc1c[nH]c2ccccc12)Cc1cccc(Br)c1` [Example 23, N-(3-bromobenzyl)-2-(1H-indol-3-yl)-N-methylethan-1-amine]: the Ki at human 5-HT2A receptor (setting [6]) was 11 nM; at 5HT2B receptor [1] (setting [7]), 22 nM. Also, the IC50 at 5HT2B receptor [2] (setting [8]) turned out to be 1620 nM.

On to `C=C(C)CN(CCc1c[nH]c2ccccc12)Cc1cccc(OC)c1` [Example 20, N-(2-(1H-indol-3-yl)ethyl)-N-(3-methoxybenzyl)2-methylprop-2-en-1-amine], for which the Ki on human 5-HT2A receptor (setting [6]) was determined as 135 nM.

In turn, `CCN(CCc1c[nH]c2ccc(OC)cc12)Cc1ccccc1OC` [Example 11, N-ethyl-2-(5-methoxy-1H-indol-3-yl)-N-(2-methoxybenzyl)ethan-1-amine] came in with an EC50 at 5HT2B receptor [3] greater than 10000 nM. Moreover, the Ki was 170 nM at human 5-HT2A receptor (setting [9]) and 173 nM on 5HT2B receptor [1].

Regarding `COc1cccc(CN(CCc2c[nH]c3ccccc23)C(C)C)c1OC` [Example 16, N-(2-(1H-indol-3-yl)ethyl)-N-(2,3-dimethoxybenzyl)prop-2-an-1-amine], the EC50 at 5HT2B receptor [3] (setting [10]) is greater than 10000 nM. The Ki amounted to 2630 nM at human 5-HT2A receptor (setting [6]) and 313 nM on 5HT2B receptor [1] (setting [7]). In addition, the IC50 at 5HT2B receptor [2] (setting [8]) was greater than 10000 nM.

As for `C=CCN(CCc1c[nH]c2ccccc12)Cc1cccc(OC)c1` [Example 29, N-(2-(1H-indol-3-yl)ethyl)-N-(3-methoxybenzyl)prop-2-en-1-amine], the results for the Ki on human 5-HT2A receptor (setting [6]) and on 5HT2B receptor [1] (setting [7]) were 28 nM and 21 nM, respectively.

In the case of `CCc1cccc(CN(C)CCc2c[nH]c3ccccc23)c1` [Example 21, 2-(1H-indol-3-yl)-N-(3-ethylbenzyl)-N-methylethan-1-amine], on human 5-HT2A receptor (setting [6]), the Ki was determined as 5 nM. Further, the IC50 at 5HT2B receptor [2] (setting [8]) turned out to be 687 nM.

For the molecule `COc1ccc2[nH]cc(CCN(C)Cc3cc(OC)c(OC)c(OC)c3)c2c1` [C, reference compound], the Ki stood at 340 nM at human 5-HT2A receptor (setting [9]) and 76 nM at 5HT2B receptor [1]. The molecule further returned an IC50 against 5HT2B receptor [2] of 2050 nM.

For `C/C=C\CN(CCc1c[nH]c2ccccc12)Cc1cccc(OC)c1` [Example 19, (Z)—N-(2-(1H-indol-3-yl)ethyl)-N-(3-methoxybenzyl)but-2-en-1-amine], on 5HT2B receptor [3] (setting [10]), the EC50 was greater than 10000 nM. Also, the Ki at human 5-HT2A receptor (setting [6]) is 31 nM; on 5HT2B receptor [1] (setting [7]), 44 nM. Moreover, on 5HT2B receptor [2] (setting [8]), the IC50 is 3380 nM.

For `C#Cc1cccc(CN(C)CCc2c[nH]c3ccccc23)c1` [Example 25, 2-(1H-indol-3-yl)-N-(3-ethynylbenzyl)-N-methylethan-1-amine], the EC50 at 5HT2B receptor [3] (setting [10]) was 163 nM. Also, the Ki on human 5-HT2A receptor (setting [6]) was determined as 6 nM; at 5HT2B receptor [1] (setting [7]), 13 nM. Besides, on 5HT2B receptor [2] (setting [8]), the IC50 was determined as 2560 nM.

Take `COc1cc(OC)c(CN(CCc2c[nH]c3ccc(OC)cc23)C(C)C)c(OC)c1` [B, reference compound]: the Ki stood at 4600 nM on human 5-HT2A receptor (setting [6]) and 4930 nM on 5HT2B receptor [1] (setting [7]). For the same molecule, the IC50 on 5HT2B receptor [2] (setting [8]) was greater than 10000 nM.

Regarding `COc1cccc(CN(C)CCc2c[nH]c3ccccc23)c1` [Example 10], the IC50 on 5HT2B receptor [3] (Example 10, read-out: 5HT2B functional agonist mode IC50) was determined as 1050 nM. Besides, the “5HT2B functional agonist mode efficacy” value at 5HT2B receptor [3] (up to 30 uM) is given as less than 20%. The Ki on human 5-HT2A receptor (125I-DOI 0.1 nM, HEK-293, Cheng Prusoff, read-out: 5HT2A binding constant Ki) is 14 nM; at 5HT2B receptor [1] (125I-DOI 0.2 nM, CHO cells, Cheng Prusoff, read-out: 5HT2B binding constant Ki), 380 nM; on 5HT2C receptor [4], 42 nM; on human recombinant 5-HT1A, 510 nM.

Regarding `C=CCN(CCc1c[nH]c2ccc(OC)cc12)Cc1ccccc1OC` [Example 13, N-(2-(5-methoxy-1H-indol-3-yl)ethyl)-N-(2-methoxybenzyl)prop-2-en-1-amine], at 5HT2B receptor [3] (setting [10]), the EC50 was greater than 10000 nM. Further, the values for the Ki at human 5-HT2A receptor (setting [6]) and at 5HT2B receptor [1] (setting [7]) were 76 nM and 73 nM, respectively. Further, the IC50 on 5HT2B receptor [2] (setting [8]) was greater than 10000 nM.

Consider `COc1ccc(CN(C)CCc2c[nH]c3ccccc23)cc1` [Example 14, 2-(1H-indol-3-yl)-N-(4-methoxybenzyl)-N-methylethan-1-amine], for which the Ki was 280 nM at human 5-HT2A receptor (setting [6]) and 69 nM on 5HT2B receptor [1] (setting [7]). The IC50 on 5HT2B receptor [2] (setting [8]) was determined as 1670 nM.

As to `COc1ccc2[nH]cc(CCN(C)Cc3c(OC)cccc3OC)c2c1` [A, reference compound], the Ki on human 5-HT2A receptor (setting [9]) is 1600 nM; on 5HT2B receptor [1] it was 402 nM. For the same molecule, the IC50 at 5HT2B receptor [2] was greater than 10000 nM.

Take `CN(CCc1c[nH]c2ccccc12)Cc1ccccc1` [Example 17, N-(2-(1H-indol-3-yl)ethyl)-N-(benzyl)methan-1-amine]: the Ki amounted to 60 nM at human 5-HT2A receptor (setting [6]) and 45 nM on 5HT2B receptor [1] (setting [7]). The IC50 on 5HT2B receptor [2] (setting [8]) was greater than 10000 nM.

For the molecule `COc1cccc(CN(C)CCc2c[nH]c3ccccc23)c1OC` [Example 15, N-(2,3-dimethoxybenzyl)-2-(H-indol-3-yl)-N-methylethan-1-amine], the figures for the Ki on human 5-HT2A receptor (setting [9]) and on 5HT2B receptor [1] were 274 nM and 48 nM, respectively. At 5HT2B receptor [2], this molecule displayed an IC50 of 1370 nM.

On to `CN(CCc1c[nH]c2ccccc12)Cc1cccc(CO)c1` [Example 24, N-(2-(1H-indol-3-yl)ethyl)-N-(3-hydroxymethylbenzyl)methan-1-amine], for which the Ki at human 5-HT2A receptor (setting [6]) is 59 nM; at 5HT2B receptor [1] (setting [7]) it was 50 nM. Further, on 5HT2B receptor [2] (setting [8]), the IC50 came to 6990 nM.

For `COc1cccc(CN(C)CCc2c[nH]c3ccc(OC)cc23)c1` [Example 27, 2-(5-methoxy-1H-indol-3-yl)-N-(3-methoxybenzyl)-N-methylethan-1-amine], the Ki at human 5-HT2A receptor (setting [9]) and on 5HT2B receptor [1] was 16 nM throughout.

As to `COc1ccccc1CN(C)CCc1c[nH]c2ccccc12` [Example 28, 2-(1H-indol-3-yl)-N-(2-methoxybenzyl)-N-methylethan-1-amine], the Ki was 130 nM on human 5-HT2A receptor (setting [9]) and 253 nM at 5HT2B receptor [1].

Take `COc1ccc2[nH]cc(CCN(Cc3ccccc3OC)C(C)C)c2c1` [Example 12, N-(2-(5-methoxy-1H-indol-3-yl)ethyl)-N-(2-methoxybenzyl)propan-2-amine]: at 5HT2B receptor [3] (setting [10]), the EC50 was greater than 10000 nM. The Ki at human 5-HT2A receptor (setting [6]) stood at 277 nM; at 5HT2B receptor [1] (setting [7]) it was 341 nM.

For the molecule `CN(CCc1c[nH]c2ccccc12)Cc1cccc(O)c1` [Example 22, 3-(((2-(1H-indol-3-yl)ethyl)(methyl)amino)methyl)phenol], the values for the Ki at human 5-HT2A receptor (setting [9]) and on 5HT2B receptor [1] were 35 nM and 31 nM, respectively. The molecule also displayed an IC50 on 5HT2B receptor [2] greater than 10000 nM.

As to `CCCCn1cc(CCN(C)C)c2c(O)cccc21` [Compound 6], at 5HT2C receptor [5], the EC50 is roughly 600 nM.
